Molecules are shown by their SMILES. Where a name gives a salt, the structure may show the parent alone. Read-outs that look alike come from different tables or passages of the source.

The target of test [1] is PI3Kγ (p110γ) Recombinant Human Protein (Homo sapiens (Human), UniProt P48736). The test can be described thus: PI3K-γ scintillation proximity assay. Type of test: biochemical. Conditions: 20 μM PIP2, 2 μM ATP, 13 nM PI3Kγ, 120 min, room temperature. The essentials: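 Radiometric SPA in 20 mM MOPS pH 6.7, 10 mM MgCl2, 5 mM DTT, 0.03% CHAPS, 2% DMSO. Stopped with EDTA and WGA SPA beads for scintillation counting. IC50 fitted from % solvent-control activity versus log concentration.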
PI3Kγ (p110γ) Recombinant Human Protein, sequence (P48736 whole entry): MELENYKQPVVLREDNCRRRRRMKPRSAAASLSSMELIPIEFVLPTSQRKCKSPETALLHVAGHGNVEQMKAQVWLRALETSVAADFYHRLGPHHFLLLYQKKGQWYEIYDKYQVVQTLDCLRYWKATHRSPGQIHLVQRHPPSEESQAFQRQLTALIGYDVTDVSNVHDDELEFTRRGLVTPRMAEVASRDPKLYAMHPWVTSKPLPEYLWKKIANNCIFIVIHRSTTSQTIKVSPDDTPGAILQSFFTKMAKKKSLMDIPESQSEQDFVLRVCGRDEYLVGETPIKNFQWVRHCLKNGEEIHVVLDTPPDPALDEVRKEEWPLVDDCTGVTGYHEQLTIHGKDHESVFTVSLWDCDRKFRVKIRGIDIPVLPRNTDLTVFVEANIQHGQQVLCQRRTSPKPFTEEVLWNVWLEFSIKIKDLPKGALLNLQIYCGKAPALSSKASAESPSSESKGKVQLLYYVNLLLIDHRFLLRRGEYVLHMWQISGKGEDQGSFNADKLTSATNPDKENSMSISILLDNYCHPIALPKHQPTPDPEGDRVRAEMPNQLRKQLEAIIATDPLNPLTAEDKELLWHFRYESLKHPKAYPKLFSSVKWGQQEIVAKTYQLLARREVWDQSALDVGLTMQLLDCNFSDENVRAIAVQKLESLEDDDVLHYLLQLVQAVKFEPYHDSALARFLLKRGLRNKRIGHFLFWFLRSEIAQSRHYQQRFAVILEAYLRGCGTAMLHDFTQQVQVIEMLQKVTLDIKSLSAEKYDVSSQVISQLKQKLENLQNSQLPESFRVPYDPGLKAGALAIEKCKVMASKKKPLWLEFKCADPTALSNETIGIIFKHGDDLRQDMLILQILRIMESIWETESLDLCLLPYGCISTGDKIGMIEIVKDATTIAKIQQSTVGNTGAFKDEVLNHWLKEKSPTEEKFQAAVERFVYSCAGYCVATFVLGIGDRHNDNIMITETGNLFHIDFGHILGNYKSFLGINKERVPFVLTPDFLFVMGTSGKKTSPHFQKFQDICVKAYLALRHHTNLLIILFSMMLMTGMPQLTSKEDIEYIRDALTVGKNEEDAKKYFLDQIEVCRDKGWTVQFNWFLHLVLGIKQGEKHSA
Background: In a scintillation proximity assay essentially only radioactivity close to the scintillant gives light.

Test [2] concerns the target PI3Kδ (p110δ/p85α) Recombinant Human Protein (Homo sapiens (Human), UniProt O00329). As to the kind of experiment: PI3Kδ scintillation proximity assay. It is filed as biochemical. The following applies: 20 μM PIP2, 2 μM ATP, 3.4 nM PI3Kδ, 120 min, room temperature; read-out: PI3Kδ IC50. The essentials:
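Recombinant human p110δ/p85α was run at room temperature in 20 mM MOPS pH 6.7, 10 mM MgCl2, 5 mM DTT, 0.03% CHAPS, 2% DMSO. Substrates were 20 µM PIP2 and 2 µM ATP with [γ-33P]ATP. Product was captured overnight on WGA SPA beads and counted by scintillation; IC50 fitted from percent of solvent control versus log concentration.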

Test [3] has as its system Phosphorylated Ribosomal Protein S6 (RPS6) in THP-1 cells. The test can be described thus: THP-1 RPS6 ELISA assay. Type of test: cell-based, Human. The following applies: Homo sapiens, serum starved, 2 h compound, 10 nM MCP-1 for 15 min, phospho-RPS6 ELISA, read-out: PI3Kγ_THP1_RPS6_ELISA IC50. A digest of the protocol: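 Serum-starved THP-1 cells (2×10^5/well, RPMI) preincubated with compound 2 h at 37° C, then stimulated with 10 nM MCP-1 for 15 min. Lysates assayed by phospho-RPS6 ELISA, absorbance 450 nm (540 nm correction); IC50 from percent inhibition versus log concentration.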

PI3Kδ (p110δ/p85α) Recombinant Human Protein, sequence (O00329 whole entry): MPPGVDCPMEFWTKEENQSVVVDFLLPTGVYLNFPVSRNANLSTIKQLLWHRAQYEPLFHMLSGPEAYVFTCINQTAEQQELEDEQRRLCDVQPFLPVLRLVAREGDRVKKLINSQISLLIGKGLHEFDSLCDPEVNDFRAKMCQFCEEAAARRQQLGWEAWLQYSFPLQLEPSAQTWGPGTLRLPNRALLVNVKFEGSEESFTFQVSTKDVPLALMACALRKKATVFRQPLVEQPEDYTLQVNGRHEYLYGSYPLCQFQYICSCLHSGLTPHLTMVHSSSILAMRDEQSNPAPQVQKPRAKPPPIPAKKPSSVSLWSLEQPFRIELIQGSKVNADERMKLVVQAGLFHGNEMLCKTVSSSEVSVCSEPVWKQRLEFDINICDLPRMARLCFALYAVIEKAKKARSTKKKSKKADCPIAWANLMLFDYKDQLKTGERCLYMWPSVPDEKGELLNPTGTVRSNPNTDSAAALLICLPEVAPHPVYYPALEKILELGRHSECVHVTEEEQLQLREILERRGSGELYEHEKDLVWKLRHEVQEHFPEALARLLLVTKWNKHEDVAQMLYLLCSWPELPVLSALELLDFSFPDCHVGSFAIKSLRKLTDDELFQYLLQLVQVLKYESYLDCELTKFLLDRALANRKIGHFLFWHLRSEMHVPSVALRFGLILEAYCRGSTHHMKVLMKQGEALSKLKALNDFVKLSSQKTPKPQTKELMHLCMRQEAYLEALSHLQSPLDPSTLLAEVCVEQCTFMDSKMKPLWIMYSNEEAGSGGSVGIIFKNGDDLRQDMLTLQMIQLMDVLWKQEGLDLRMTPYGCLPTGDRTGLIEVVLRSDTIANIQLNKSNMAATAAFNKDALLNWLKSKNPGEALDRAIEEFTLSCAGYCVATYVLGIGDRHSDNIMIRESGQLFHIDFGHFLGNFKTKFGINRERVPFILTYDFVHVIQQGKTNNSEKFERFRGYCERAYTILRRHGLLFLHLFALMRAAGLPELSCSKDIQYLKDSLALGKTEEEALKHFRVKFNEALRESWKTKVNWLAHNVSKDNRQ
PI3Kδ (p110δ/p85α) Recombinant Human Protein, sequence (P27986 whole entry partner): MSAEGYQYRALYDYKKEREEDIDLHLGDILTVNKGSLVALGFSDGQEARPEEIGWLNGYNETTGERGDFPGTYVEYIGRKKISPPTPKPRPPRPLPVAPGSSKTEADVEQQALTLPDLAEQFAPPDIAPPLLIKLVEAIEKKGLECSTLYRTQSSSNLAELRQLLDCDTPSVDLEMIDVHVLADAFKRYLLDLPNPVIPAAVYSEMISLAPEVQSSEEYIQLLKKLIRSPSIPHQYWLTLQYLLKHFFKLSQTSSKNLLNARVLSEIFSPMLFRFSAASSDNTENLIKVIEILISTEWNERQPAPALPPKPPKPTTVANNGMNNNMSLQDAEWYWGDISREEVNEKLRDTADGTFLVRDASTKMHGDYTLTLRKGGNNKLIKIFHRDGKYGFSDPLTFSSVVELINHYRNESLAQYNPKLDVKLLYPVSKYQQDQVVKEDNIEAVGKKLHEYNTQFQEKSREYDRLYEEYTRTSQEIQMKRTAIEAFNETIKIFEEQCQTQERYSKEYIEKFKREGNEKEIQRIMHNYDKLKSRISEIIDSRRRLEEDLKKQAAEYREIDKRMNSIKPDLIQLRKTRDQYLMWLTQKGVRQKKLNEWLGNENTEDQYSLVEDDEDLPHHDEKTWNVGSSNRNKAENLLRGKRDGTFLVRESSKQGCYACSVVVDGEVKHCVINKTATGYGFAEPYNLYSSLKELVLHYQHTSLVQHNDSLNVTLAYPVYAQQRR

For orientation: IC50 means the concentration at which inhibition is half-maximal. For `Cc1ccc(C(O)(CNC(=O)CF)C(F)(F)F)cc1-c1cnc2c(N)nc(C(F)(F)F)cn12` (stereo not drawn) [Example 214, N-(2-(3-(8-amino-6-(trifluoromethyl)imidazo[1,2-a]pyrazin-3-yl)-4-methylphenyl)-3,3,3-trifluoro-2-hydroxypropyl)-2-fluoroacetamide trifluoroacetate salt], the IC50 was less than 100 nM in test [1], 100 to 500 nM in test [2] and 100 to 500 nM in test [3] (THP-1 cells).

Turning to `CNC(=O)C(C)(C)C(O)(c1ccc(C)c(-c2cnc3c(N)nc(C(F)(F)F)cn23)c1)C(F)(F)F` (stereo not drawn) [Example 262, 3-(3-(8-Amino-6-(trifluoromethyl)imidazo[1,2-a]pyrazin-3-yl)-4-methylphenyl)-4,4,4-trifluoro-3-hydroxy-N,2,2-trimethylbutanamide], the IC50 in test [1] was less than 100 nM; in test [2] it was 100 to 500 nM; in test [3] (THP-1, THP-1 cells) it was more than 1000 nM.

In the case of `Cc1ccc(C(O)(C(F)(F)F)C(F)(F)F)cc1-c1cnc2c(N)nc(-c3ccnn3C)cn12` [Example 264, 2-(3-(8-Amino-6-(1-methyl-1H-pyrazol-5-yl)imidazo[1,2-a]pyrazin-3-yl)-4-methylphenyl)-1,1,1,3,3,3-hexafluoropropan-2-ol], the IC50 in test [1] is less than 100 nM; in test [2] it was less than 100 nM; in test [3] (THP-1, THP-1 cells), less than 100 nM.

Consider `[2H]C([2H])([2H])c1ccc(C(C)(O)C(F)(F)F)cc1-c1cnc2c(N)nc(-c3ccc(C(C)O)nc3)cn12` (stereo not drawn) [Example 267, 2-(3-(8-Amino-6-(6-(1-hydroxyethyl)pyridin-3-yl)imidazo[1,2-a]pyrazin-3-yl)-4-(methyl-d3)phenyl)-1,1,1-trifluoropropan-2-ol], for which the IC50 in test [1] is less than 100 nM; in test [2], less than 100 nM; in test [3] (THP-1, THP-1 cells), less than 100 nM.

As for `Cc1ccc(C(C)(O)C(F)(F)Cl)cc1-c1cnc2c(N)nc(C(F)(F)F)cn12` (stereo not drawn) [Example 268, 2-(3-(8-Amino-6-(trifluoromethyl)imidazo[1,2-a]pyrazin-3-yl)-4-methylphenyl)-1-chloro-1,1-difluoropropan-2-ol], the IC50 in test [1] was less than 100 nM; in test [2], 100 to 500 nM; in test [3] (THP-1, THP-1 cells), 100 to 500 nM.

As for `Cc1ccc(C(C)(O)C(F)(F)F)cc1-c1cnc2c(N)nc(C(=O)NC34CC(C#N)(C3)C4)cn12` (stereo not drawn) [Example 278, 8-Amino-N-(3-cyanobicyclo[1.1.1]pentan-1-yl)-3-(2-methyl-5-(1,1,1-trifluoro-2-hydroxypropan-2-yl)phenyl)imidazo[1,2-a]pyrazine-6-carboxamide trifluoroacetate salt], the IC50 is less than 100 nM in test [1]; 100 to 500 nM in test [2]; 100 to 500 nM in test [3] (THP-1, THP-1 cells).

Turning to `Cc1ccc(C(C)(O)C(F)(F)F)cc1-c1cnc2c(N)nc(C(=O)NCC3(C#N)CCC3)cn12` (stereo not drawn) [Example 283, 8-Amino-N-((1-cyanocyclobutyl)methyl)-3-(2-methyl-5-(1,1,1-trifluoro-2-hydroxypropan-2-yl)phenyl)imidazo[1,2-a]pyrazine-6-carboxamide trifluoroacetate salt], the half-maximal inhibitory concentration (IC50) in test [1] is less than 100 nM; in test [2] it was less than 100 nM; in test [3] (THP-1, THP-1 cells) it was more than 1000 nM.

With `Cc1ccc(C(O)(C(N)=O)C(F)(F)F)cc1-c1cnc2c(N)nc(C(=O)NCC(C)(C)O)cn12` (stereo not drawn) [Example 284, 8-Amino-3-(5-(3-amino-1,1,1-trifluoro-2-hydroxy-3-oxopropan-2-yl)-2-methylphenyl)-N-(2-hydroxy-2-methylpropyl)imidazo[1,2-a]pyrazine-6-carboxamide], the IC50 in test [1] is less than 100 nM; in test [2], 100 to 500 nM; in test [3] (THP-1, THP-1 cells), less than 100 nM.

As for `Cc1ccc(C(O)(C(N)=O)C(F)(F)F)cc1-c1cnc2c(N)nc(C(=O)NC3CCOCC3)cn12` (stereo not drawn) [Example 285, 8-Amino-3-(5-(3-amino-1,1,1-trifluoro-2-hydroxy-3-oxopropan-2-yl)-2-methylphenyl)-N-(tetrahydro-2H-pyran-4-yl)imidazo[1,2-a]pyrazine-6-carboxamide], the IC50 in test [1] is less than 100 nM; in test [2], 500 to 2000 nM; in test [3] (THP-1, THP-1 cells), 100 to 500 nM.

For `Cc1ccc(C(O)(C(N)=O)C(F)(F)F)cc1-c1cnc2c(N)nc(C(=O)NC34CC(F)(C3)C4)cn12` (stereo not drawn) [Example 288, 8-Amino-3-(5-(3-amino-1,1,1-trifluoro-2-hydroxy-3-oxopropan-2-yl)-2-methylphenyl)-N-(3-fluorobicyclo[1.1.1]pentan-1-yl)imidazo[1,2-a]pyrazine-6-carboxamide trifluoroacetate salt], the IC50 in test [1] was less than 100 nM; in test [2], 100 to 500 nM; in test [3] (THP-1, THP-1 cells), less than 100 nM.

With `[2H]C([2H])([2H])NC(=O)C(O)(c1ccc(C)c(-c2cnc3c(N)nc(C(=O)NC(CC#N)C(F)(F)F)cn23)c1)C(F)(F)F` (stereo not drawn) [Example 289, 8-Amino-N-(3-cyano-1,1,1-trifluoropropan-2-yl)-3-(2-methyl-5-(1,1,1-trifluoro-2-hydroxy-3-((methyl-d3)amino)-3-oxopropan-2-yl)phenyl)imidazo[1,2-a]pyrazine-6-carboxamide trifluoroacetate salt], the IC50 in test [1] was less than 100 nM; in test [2] it was 100 to 500 nM; in test [3] (THP-1, THP-1 cells), less than 100 nM.

These data come from patent publication US10738057B2, “Tertiary alcohols as PI3K-γ inhibitors” (Incyte Corporation, priority 2017, dated 2020).
